In US6579967B1, “Receptor-selective somatostatin analogs” (The Salk Institute for Biological Studies, priority 1999, dated 2003):
“Also recorded” adds a separate entry of the source. Like-named read-outs stand apart in the source and are kept apart here.

Assays:
Assay type in all cases: binding
human SSTR3 = target: T1, human SSTR3 (Homo sapiens, UniProt P32745); experiment: Displacement of 125I-[Leu8,D-Trp22,Tyr25]-somatostatin-28 from cloned SSTR3 (receptor autoradiography on membrane pellets); conditions: for binding strength and selectivity for SSTR3, in words: qualitative statement; for relative potency at SSTR3 by comparison to SRIF-28: binding affinity relative to SRIF-28 (=1)
T1 construct: expressed in transfected cells; host or cells: CHO-K1 cells and CCL39 cells
T1 sequence (P32745 whole entry): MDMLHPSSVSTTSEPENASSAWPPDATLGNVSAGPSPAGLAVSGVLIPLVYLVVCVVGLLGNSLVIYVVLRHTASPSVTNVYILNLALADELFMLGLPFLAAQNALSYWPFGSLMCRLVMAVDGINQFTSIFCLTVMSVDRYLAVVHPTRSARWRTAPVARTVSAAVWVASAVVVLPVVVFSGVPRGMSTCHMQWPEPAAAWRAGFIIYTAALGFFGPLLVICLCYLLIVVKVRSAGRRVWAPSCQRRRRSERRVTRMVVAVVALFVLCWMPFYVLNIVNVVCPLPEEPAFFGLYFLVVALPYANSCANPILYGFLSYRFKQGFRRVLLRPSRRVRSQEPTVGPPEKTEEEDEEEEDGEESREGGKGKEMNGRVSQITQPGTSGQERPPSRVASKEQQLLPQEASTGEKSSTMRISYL
Experimental: (§1) Generally, recombinant cells expressing the receptor are washed and homogenized to prepare a crude protein homogenate in a suitable buffer, as known in the art. In a typical assay, an amount of protein from the cell homogenate is placed into a small volume of an appropriate assay buffer at an appropriate pH. Candidate substances, such as potential SRIF agonists and antagonists, are added to the admixture in convenient concentrations, and the interaction between the candidate substance and the receptor polypeptide is monitored.
(§2) Receptor binding assays are performed on cloned SRIF receptors as generally set forth in Raynor et al. supra. Using such assays, one can generate KD values which are indicative of the concentration of a ligand necessary to occupy one-half (50%) of the binding sites on a selected amount of a receptor or the like, or alternatively, competitive assays can generate IC50 values which are indicative of the concentration of a competitive ligand necessary to displace a saturation concentration of a target ligand being measured from 50% of binding sites. The peptide des-AA^1,2,4,5,12,13-[D-Agl^8(Me,2-naphthoyl)]SRIF inhibits the binding to SSTR3 of an iodinated SRIF-28 ligand that has strong affinity for all five receptors.
(§3) In vitro Bioassay: The various somatostatin analogs are tested in vitro for their ability to bind to isolated cloned receptors expressed on CHO-K1 cells and CCL39 cells. CHO-K1 cells are grown in Ham's F-12 medium, and CCL39 cells are grown in Dulbecco's modified Eagle's medium/Ham's F-12(1:1) mix, supplemented with 10% fetal bovine serum, 100 U/ml penicillin and 100 μg/ml streptomycin, in humidified air containing 5% CO2 at 37° C.
(§4) Cells are washed twice with and scraped into ice-cold 0.05 M Tris-HCl (pH 7.4), collected by centrifugation, and homogenized using a rotor/stator slash system in the same buffer. After centrifugation at 120 g for 5 min. at 4° C., the supernatant is collected and centrifuged again at 48,000 g for 30 min. at 4° C. The resulting pellet is resuspended in ice-cold Tris buffer, transferred into a microfuge tube, and centrifuged at 20,000 g for 15 min. at 4° C. After withdrawal of the supernatant, the membrane pellet is stored at −80° C.
(§5) Receptor autoradiography is performed on 20 μm thick cryostat sections of the membrane pellets, mounted on microscope slides, and then stored at −20° C. For each of the tested compounds, complete displacement experiments are performed with the universal somatostatin ligand radioligand ^125I-[Leu^8,D-Trp^22,Tyr^25]-somatostatin-28 that binds with strong affinity to all five receptors. Increasing concentrations of the unlabeled peptide are used ranging from 0.1-1000 nM. Unlabeled somatostatin-28 is run in parallel using the same increasing concentrations, as a control. IC50 values are calculated after quantification of the data using a computer-assisted image processing system as known in this art.
(§6) The potencies of certain SRIF analogs to inhibit radioligand binding of ^125I-[Leu^8,D-Trp^22,[…]]SRIF-28 to the various cloned SRIF receptors are shown in the following table wherein the IC50 values are given in nanomolar concentration.

human SSTR1 = target: T2, human SSTR1 (Homo sapiens, UniProt P30872); experiment: Displacement of 125I-[Leu8,D-Trp22,Tyr25]-somatostatin-28 from cloned SSTR1 (receptor autoradiography on membrane pellets)
T2 construct: expressed in transfected cells; host or cells: CHO-K1 cells and CCL39 cells
T2 sequence (P30872 whole entry): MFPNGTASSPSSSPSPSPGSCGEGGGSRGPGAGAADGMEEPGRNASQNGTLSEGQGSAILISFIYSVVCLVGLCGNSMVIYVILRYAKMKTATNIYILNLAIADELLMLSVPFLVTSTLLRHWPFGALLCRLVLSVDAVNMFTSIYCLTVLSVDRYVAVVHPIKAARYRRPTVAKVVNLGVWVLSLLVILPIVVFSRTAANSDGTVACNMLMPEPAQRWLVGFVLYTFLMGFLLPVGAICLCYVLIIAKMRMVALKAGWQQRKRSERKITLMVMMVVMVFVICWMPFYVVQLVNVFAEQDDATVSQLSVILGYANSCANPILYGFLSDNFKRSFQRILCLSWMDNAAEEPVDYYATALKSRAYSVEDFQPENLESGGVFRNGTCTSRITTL
Experimental: as §1
(§7) Receptor binding assays are performed on cloned SRIF receptors as generally set forth in Raynor et al. supra. Using such assays, one can generate KD values which are indicative of the concentration of a ligand necessary to occupy one-half (50%) of the binding sites on a selected amount of a receptor or the like, or alternatively, competitive assays can generate IC50 values which are indicative of the concentration of a competitive ligand necessary to displace a saturation concentration of a target ligand being measured from 50% of binding sites.
as §3, §4
(§8) Receptor autoradiography is performed on 20 μm thick cryostat sections of the membrane pellets, mounted on microscope slides, and then stored at −20° C. […] […] Unlabeled somatostatin-28 is run in parallel using the same increasing concentrations, as a control. IC50 values are calculated after quantification of the data using a computer-assisted image processing system as known in this art.

human SSTR4 = target: T3, human SSTR4 (Homo sapiens, UniProt P31391); experiment: Displacement of 125I-[Leu8,D-Trp22,Tyr25]-somatostatin-28 from cloned SSTR4 (receptor autoradiography on membrane pellets)
T3 construct: expressed in transfected cells; host or cells: CHO-K1 cells and CCL39 cells
T3 sequence (P31391 whole entry): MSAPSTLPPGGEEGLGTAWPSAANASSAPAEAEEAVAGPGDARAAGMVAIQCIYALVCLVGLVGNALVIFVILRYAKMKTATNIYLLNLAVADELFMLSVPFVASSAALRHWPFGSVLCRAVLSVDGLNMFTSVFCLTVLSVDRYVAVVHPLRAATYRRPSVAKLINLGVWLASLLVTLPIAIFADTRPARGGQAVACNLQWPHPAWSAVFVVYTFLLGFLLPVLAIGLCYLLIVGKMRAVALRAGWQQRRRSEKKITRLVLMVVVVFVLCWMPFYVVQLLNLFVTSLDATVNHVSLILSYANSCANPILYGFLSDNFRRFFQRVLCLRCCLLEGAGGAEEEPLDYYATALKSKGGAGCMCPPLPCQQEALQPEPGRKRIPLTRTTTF
Experimental: as §1, §7, §3, §4, §8

human SSTR2 = target: T4, human SSTR2 (Homo sapiens, UniProt P30874); experiment: Displacement of 125I-[Leu8,D-Trp22,Tyr25]-somatostatin-28 from cloned SSTR2 (receptor autoradiography on membrane pellets)
T4 construct: expressed in transfected cells; host or cells: CHO-K1 cells and CCL39 cells
T4 sequence (P30874 whole entry): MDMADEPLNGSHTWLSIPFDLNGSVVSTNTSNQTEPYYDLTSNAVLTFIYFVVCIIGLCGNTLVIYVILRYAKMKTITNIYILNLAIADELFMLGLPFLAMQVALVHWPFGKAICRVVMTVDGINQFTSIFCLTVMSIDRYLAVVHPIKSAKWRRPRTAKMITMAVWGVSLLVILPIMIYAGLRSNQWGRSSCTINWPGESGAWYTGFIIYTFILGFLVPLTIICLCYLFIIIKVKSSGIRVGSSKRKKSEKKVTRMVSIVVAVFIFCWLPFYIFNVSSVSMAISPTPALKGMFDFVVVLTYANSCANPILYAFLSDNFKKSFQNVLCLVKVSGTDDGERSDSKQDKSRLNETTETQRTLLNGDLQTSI
Experimental: as §1, §7, §3, §4, §8

human SSTR5 = target: T5, human SSTR5 (Homo sapiens, UniProt P35346); experiment: Displacement of 125I-[Leu8,D-Trp22,Tyr25]-somatostatin-28 from cloned SSTR5 (receptor autoradiography on membrane pellets)
T5 construct: expressed in transfected cells; host or cells: CHO-K1 cells and CCL39 cells
T5 sequence (P35346 whole entry): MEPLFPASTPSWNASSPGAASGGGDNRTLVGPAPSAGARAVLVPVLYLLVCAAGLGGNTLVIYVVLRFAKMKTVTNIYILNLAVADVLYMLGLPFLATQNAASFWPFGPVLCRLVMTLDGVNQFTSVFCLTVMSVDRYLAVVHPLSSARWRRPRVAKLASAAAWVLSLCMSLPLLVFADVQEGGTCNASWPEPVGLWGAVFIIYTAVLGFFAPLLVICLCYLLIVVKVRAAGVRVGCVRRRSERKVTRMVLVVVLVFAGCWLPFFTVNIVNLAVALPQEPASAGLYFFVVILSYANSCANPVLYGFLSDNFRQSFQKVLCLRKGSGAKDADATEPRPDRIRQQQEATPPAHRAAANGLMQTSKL
Experimental: as §1, §2, §3, §4
as §5, with “Increasing concentrations of the unlabeled peptide are used ranging from 0.1-1000 nM.” left out
as §6

[1] = inhibition of 125I-[Leu8,D-Trp22,Tyr24]SRIF-28 binding, cloned receptor, read-out: IC50 (nM) mSSTR3
[2] = iodinated SRIF-28 ligand, cloned human receptor, read-out: IC50 at cloned human SSTR3
[3] = inhibition of 125I-[Leu8,D-Trp22,Tyr24]SRIF-28 binding, cloned receptor, read-out: IC50 (nM) mSSTR1
[4] = iodinated SRIF-28 ligand, cloned human receptor, read-out: concentration below which no binding to human SSTR1
[5] = inhibition of 125I-[Leu8,D-Trp22,Tyr24]SRIF-28 binding, cloned receptor, read-out: IC50 (nM) mSSTR4
[6] = iodinated SRIF-28 ligand, cloned human receptor, read-out: concentration below which no binding to human SSTR4
[7] = inhibition of 125I-[Leu8,D-Trp22,Tyr24]SRIF-28 binding, cloned receptor, read-out: IC50 (nM) mSSTR2
[8] = iodinated SRIF-28 ligand, cloned human receptor, read-out: concentration below which no binding to human SSTR2
[9] = inhibition of 125I-[Leu8,D-Trp22,Tyr24]SRIF-28 binding, cloned receptor, read-out: IC50 (nM) mSSTR5
[10] = iodinated SRIF-28 ligand, cloned human receptor, read-out: concentration below which no binding to human SSTR5

Compound	IC50 (human SSTR3; [1])	binding strength and selectivity for SSTR3, in words (human SSTR3)	IC50 (human SSTR1; [3])	IC50 (human SSTR4; [5])	IC50 (human SSTR2; [7])	IC50 (human SSTR5; [9])	other results
C[C@@H](O)[C@@H]1NC(=O)[C@H](CCCCN)NC(=O)[C@@H](Cc2ccc3ccccc3c2)NC(=O)[C@H](N(C)C(=O)c2ccccc2)NC(=O)[C@H](Cc2ccccc2)NC(=O)[C@@H](N)CSSC[C@@H](C(=O)O)NC(=O)[C@H](Cc2ccccc2)NC1=O [Peptide No. 3, (cyclo 3-14)H-Cys-Phe-Agl(Me,Bz)-D-2Nal-Lys-Thr-Phe-Cys-OH]	80 nM	bind selectively to SSTR3; also recorded: selectively binds SSTR3	> 10000 nM	> 1000 nM	> 1000 nM	> 1000 nM	IC50 (human SSTR3; [2]): ~80 nM; IC50 (human SSTR1; [4]): > 1000 nM; IC50 (human SSTR4; [6]): > 1000 nM; IC50 (human SSTR2; [8]): > 1000 nM; IC50 (human SSTR5; [10]): > 1000 nM
C[C@@H](O)[C@@H]1NC(=O)[C@H](CCCCN)NC(=O)[C@@H](N(C)C(=O)c2ccc3ccccc3c2)NC(=O)[C@H](Cc2ccccc2)NC(=O)[C@H](Cc2ccccc2)NC(=O)[C@@H](N)CSSC[C@@H](C(=O)O)NC(=O)[C@H](Cc2ccccc2)NC1=O [Peptide No. 2B, (cyclo 3-14)H-Cys-Phe-Phe-D-Agl(Me,2Np)-Lys-Thr-Phe-Cys-OH]	70 ± 17 nM	selectively binds to SSTR3	> 10000 nM	> 10000 nM	> 10000 nM	> 10000 nM	relative potency at SSTR3 by comparison to SRIF-28 (human SSTR3): about 0.13; IC50 at cloned human SSTR3 (human SSTR3; iodinated SRIF-28 ligand, cloned human receptor): about the same as No. 2; IC50 (human SSTR3; [2]): ~70 nM; binding strength and selectivity for SSTR3, in words (human SSTR3; listed as Peptide 2B): bind strongly and selectively to SSTR3; IC50 (human SSTR1; [4]): > 10000 nM; IC50 (human SSTR4; [6]): > 1000 nM; IC50 (human SSTR2; [8]): > 10000 nM; IC50 (human SSTR5; [10]): > 10000 nM
(cyclo 3-14)Cbm-D-Cys-Phe-Tyr-D-Agl(Me,2Np)-Lys-Thr-Aph(Ac)-Cys-OH [Peptide No. 2M]	–	bind strongly and selectively to SSTR3	–	–	–	–	–
C[C@@H](O)[C@@H]1NC(=O)[C@H](CCCCN)NC(=O)[C@@H](N(C)C(=O)c2ccc3ccccc3c2)NC(=O)[C@H](Cc2ccc(Cl)cc2)NC(=O)[C@H](Cc2ccccc2)NC(=O)[C@@H](N)CSSC[C@@H](C(=O)O)NC(=O)[C@H](Cc2ccccc2)NC1=O [Peptide No. 2C, (cyclo 3-14)H-Cys-Phe-4ClPhe-D-Agl(Me,2Np)-Lys-Thr-Phe-Cys-OH]	300 nM	–	> 1000 nM	> 10000 nM	> 1000 nM	> 10000 nM	binding strength and selectivity for SSTR3, in words (human SSTR3; listed as Peptide 2C): bind strongly and selectively to SSTR3; also recorded: slightly less selective
(cyclo 3-14)Cbm-D-Cys-Phe-Tyr-D-Agl(Me,2Np)-Lys-Thr-Aph-Cys-OH [Peptide No. 2L]	–	bind strongly and selectively to SSTR3	–	–	–	–	–
(cyclo 3-14)Cbm-D-Cys-Phe-Agl(NMe,Bz)-D-2Nal-Lys-Thr-Phe-Cys-OH [Peptide No. 3C]	–	bind selectively to human SSTR3	–	–	–	–	–
C[C@@H](O)[C@@H]1NC(=O)[C@H](CCCCN)NC(=O)[C@@H](N(C)C(=O)c2ccc3ccccc3c2)NC(=O)[C@H](Cc2ccc(Cl)cc2)NC(=O)[C@H](Cc2ccccc2)NC(=O)[C@H](N)CSSC[C@@H](C(=O)O)NC(=O)[C@H](Cc2ccccc2)NC1=O [Peptide No. 2E, (cyclo 3-14)H-D-Cys-Phe-4ClPhe-D-Agl(Me,2Np)-Lys-Thr-Phe-Cys-OH]	180 nM	–	> 1000 nM	> 10000 nM	> 1000 nM	> 1000 nM	binding strength and selectivity for SSTR3, in words (human SSTR3; listed as Peptide 2E): bind strongly and selectively to SSTR3; also recorded: slightly less selective
(cyclo 3-14)H-D-Cys-Phe-Agl(NMe,Bz)-D-2Nal-Lys-Thr-Phe-Cys-OH [Peptide No. 3A]	–	bind selectively to SSTR3	–	–	–	–	–
C[C@@H](O)[C@@H]1NC(=O)[C@H](CCCCN)NC(=O)[C@@H](N(C)C(=O)c2ccc3ccccc3c2)NC(=O)[C@H](Cc2ccc(O)cc2)NC(=O)[C@H](Cc2ccccc2)NC(=O)[C@H](N)CSSC[C@@H](C(=O)O)NC(=O)[C@H](Cc2ccccc2)NC1=O [Peptide No. 2A, (cyclo 3-14)H-D-Cys-Phe-Tyr-D-Agl(Me,2Np)-Lys-Thr-Phe-Cys-OH]	39 ± 11 nM	selectively binds to SSTR3	> 10000 nM	> 10000 nM	> 10000 nM	> 10000 nM	relative potency at SSTR3 by comparison to SRIF-28 (human SSTR3): about 0.24; IC50 (human SSTR3; [2]): ~39 nM; binding strength and selectivity for SSTR3, in words (human SSTR3; listed as Peptide 2A): bind strongly and selectively to SSTR3
(cyclo 3-14)H-Cys-Phe-Agl(Me,Bz)-D-1Nal-Lys-Thr-Phe-Cys-OH [Peptide No. 3B]	–	bind selectively to human SSTR3	–	–	–	–	–
(cyclo 3-14)H-Cys-Lys-Asn-Phe-Tyr-D-Agl(Me,2Np)-Lys-Thr-Phe-Thr-Ser-Cys-OH [Peptide No. 2G]	–	binds selectively to SSTR3 but has fairly low affinity for all five SRIF receptors	–	–	–	–	–
(cyclo 3-14)Cbm-D-Cys-Phe-Tyr-D-Agl(Me,2Np)-Lys-Thr-Aph(Cbm)-Cys-OH [Peptide No. 2N]	–	bind strongly and selectively to SSTR3	–	–	–	–	–
